Experimental data taken from patent US10450293B2, “Chemokine CXCR4 and CCR5 receptor modulators and uses related thereto” (Emory University, priority 2014, dated 2019).
Like-named read-outs stand apart in the source and are kept apart here.

Key:
[1] = test system: HIV-1 IIIB; experiment: HIV-1 MAGI assay, IIIB (CXCR4 / T-tropic); assay type: cell-based
Experimental: (§1) Bayesian statistical models were constructed using known CXCR4 and CCR5 active compounds from literature, and these models were used to virtually screen 5 million compounds in the Aldrich Marketplace Select library. The screen yielded 14 compounds of interest that were then tested for their anti-HIV activity for both tropisms in MAGI assay. Two compounds (FIG. 1, compounds 1 and 2) were active against both T and M tropic forms of HIV with IC50 values of ˜20 μM. These initial hits were followed-up by a second round of virtual screening based on similarity and sub-structure searching. Another 24 compounds were purchased from the same database and tested. […] This compound was then subjected to a series of biological evaluations to determine activity profile and confirm mechanism of action.

[2] = test system: HIV-1 Ba-L; experiment: HIV-1 MAGI assay, Ba-L (CCR5 / M-tropic); assay type: cell-based; conditions: Human immunodeficiency virus 1, BAL
Experimental: as §1

[3] = target: T1, HIV-1 reverse transcriptase (Human immunodeficiency virus type 1 group M subtype B, UniProt P03366); experiment: biochemical; assay type: biochemical; conditions: for IC50: read-out: RT IC50
[4] = test system: NNRTI-resistant viral strain containing the K103N/Y181C mutations; assay type: cell-based
[5] = MAGI toxicity; conditions: human, MAGI cells, TC50, table of synthesized compounds
[6] = target: T2, CCR5 (Homo sapiens, UniProt P51681); experiment: HeLa-C14:JRFL CD4-dependent cell-cell fusion assay; assay type: cell-based; conditions: luciferase readout, in words
T2 construct: expressed in transfected cells; host or cells: HeLa-C14
T2 sequence (P51681 whole entry, the tested form may be a part): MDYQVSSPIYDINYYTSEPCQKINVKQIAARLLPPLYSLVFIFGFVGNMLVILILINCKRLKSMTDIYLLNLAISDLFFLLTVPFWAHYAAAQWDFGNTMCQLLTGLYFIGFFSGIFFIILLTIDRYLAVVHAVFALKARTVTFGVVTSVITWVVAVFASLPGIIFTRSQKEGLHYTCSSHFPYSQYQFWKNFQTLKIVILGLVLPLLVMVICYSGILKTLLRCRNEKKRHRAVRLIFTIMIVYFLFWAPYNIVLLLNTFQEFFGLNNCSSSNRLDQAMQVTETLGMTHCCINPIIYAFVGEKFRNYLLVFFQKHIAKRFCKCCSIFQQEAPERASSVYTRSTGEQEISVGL
Text: Cell-cell fusion assays measure specifically co-receptor mediated inhibition of gp120-induced fusion in the absence of other viral machinery, and these assays were used to explore the CCR5- and CXCR4-specific antiviral activity. A cell-cell fusion assay was constructed to simulate HIV-1 entry in the absence of other viral machinery. The assay measured fusion of effector cells expressing the JRFL envelope (CCR5-tropic/CD4 dependent) with HeLa-C14 target cells (expressing CD4, CCR5, and CXCR4) using a luciferase readout (FIG. 5A).

[7] = target: T3, CXCR4 (Homo sapiens, UniProt P61073); experiment: Nef-M1:CXCR4 induced mitochondrial membrane depolarization (MMD) inhibition in Jurkat cells; assay type: cell-based; parameters: endogenous in cells; host or cells: Jurkat; conditions: in words
T3 sequence (P61073 whole entry): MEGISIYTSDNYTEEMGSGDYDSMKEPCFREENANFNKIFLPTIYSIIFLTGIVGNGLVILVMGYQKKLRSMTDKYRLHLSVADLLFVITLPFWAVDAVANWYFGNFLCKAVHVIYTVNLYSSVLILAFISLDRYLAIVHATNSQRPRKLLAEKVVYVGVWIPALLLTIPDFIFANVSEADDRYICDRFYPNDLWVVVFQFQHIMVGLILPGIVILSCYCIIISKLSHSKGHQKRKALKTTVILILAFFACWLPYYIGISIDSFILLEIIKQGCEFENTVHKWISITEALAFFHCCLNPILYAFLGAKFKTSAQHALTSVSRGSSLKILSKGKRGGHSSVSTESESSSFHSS

[8] = target: T1, HIV-1 reverse transcriptase; experiment: STD-NMR binding epitope study, HIV-1 reverse transcriptase; conditions: 1 mM compound, 30 ng/ml HIV reverse transcriptase
Experimental: (§2) Saturation Transfer Difference Spectroscopy (STD) was used to study the interactions between m7CCR5, HIV-1 reverse transcriptase, CXCR4, and compound 2 disclosed herein. Brandt et al., J Biol Chem. 2002, 277(19):17291-9. […] An on-resonance spectrum is recorded where m7CCR5 is selectively saturated giving rise to compound signals intensities.
(§3) The difference of off-resonance from the on-resonance spectrum results in the STD spectrum indicating proton that are in close contact to the protein surface. Non-binding protons cancelled out. The signal intensities can be quantified indicating the relative distance of the proton. Normalizing the measured STD intensities against the most intense can be expressed as percentages.
Spectra were collected on a 600 MHz Varian equipped with a triple-resonance cryoprobe, and STD spectra were collected with 512 scans at an on-resonance frequency of +0.5 ppm. Panel a) is a ^1H NMR spectrum of compound 2 in 100% deuterated phosphate buffered saline (PBS, pH=7.4). b) STD NMR spectrum of compound 2 in PBS in the absence of protein. c) STD NMR spectrum of 1 mM compound 2 in the presence of 30 ng/ml HIV reverse transcriptase (CalBioChem). d) Binding epitope of compound 2 binding to HIV-RT obtained by integrating the signals from (c).

[9] = test system: m7CCR5; experiment: STD-NMR binding epitope study, m7CCR5; conditions: 1 mM compound, 10 μM m7CCR5
Experimental: as §2, §3
STD binding epitope studies of compound 2 interacting with m7CCR5 (isolated, bacterially-expressed CCR5 construct) is shown in FIG. 2B. […] 100 mM HEPES, 150 mM NaCl, pH=7) in the absence of protein. c) STD NMR spectrum of 1 mM compound 2 in the presence of 10 μM m7CCR5 resolubilized in DDM/DOPC bicelle buffer. d) STDD spectrum of compound 2 binding to m7CCR5 obtained by subtracting (b) from (c). e) STDD binding epitope of compound 2 complexed to m7CCR5 obtained by integrating signals from (d).

[10] = target: T3, CXCR4; experiment: STD-NMR binding epitope study, CXCR4 in CHO membrane extracts; conditions: 1 mM compound, 30% CXCR4-expressing CHO membrane extracts
Experimental: as §2, §3
STD binding epitope studes of compound 2 interacting with CXCR4 obtained from Chinese Hamster Ovary (CHO) membrane extracts as shown in FIG. 2C.

[11] = Human immunodeficiency virus 1, IIIB, MAGI, Table 3, read-out: MAGI Assay IC50 CXCR4
[12] = Table 3, read-out: MAGI Assay IC50 CCR5
[13] = Human immunodeficiency virus 1, IIIB, MAGI, table of synthesized compounds, read-out: X4-IC50
[14] = table of synthesized compounds, read-out: R5-IC50
[15] = Human immunodeficiency virus 1, IIIB, MAGI, value stated for both tropisms, read-out: IC50 against T tropic HIV in MAGI assay
[16] = MAGI, value stated for both tropisms, read-out: IC50 against M tropic HIV in MAGI assay

IC50 [1, 13] [µM]	IC50 [2, 14] [µM]	Compound	IC50 [1, 11] [µM]	IC50 [2, 12] [µM]	IC50 ([3]; Table 3) [µM]	CC50 [5] [µM]	also measured
–	–	N#Cc1ccc(CN2CCC(c3[nH]ncc3Cc3ccccc3)CC2)nc1	> 100	43	211	–	–
–	–	O=C1Nc2ccc(Cl)cc2[C@@](C#CC2CC2)(C(F)(F)F)O1 [efavirenz]	–	–	–	–	loss of antiviral activity against K103N/Y181C mutant compared to wild type [4]: 70 fold
5.3	8.52	N#Cc1ccc(CN2CCC(c3[nH]ncc3Cc3ccccc3)CC2)cc1 [4-((4-(4-benzyl-1H-pyrazol-3-yl)piperidin-1-yl)methyl)benzonitrile]	–	–	–	60	–
13.2	9.72	FC(F)(F)c1ccc(CN2CCC(c3[nH]ncc3Cc3ccccc3)CC2)cc1 [4-(4-benzyl-1H-pyrazol-3-yl)-1-(4 (trifluoromethyl)benzyl)piperidine]	–	–	–	18	–
–	–	COc1cccc(CN2CCC(c3[nH]ncc3Cc3ccccc3)CC2)c1Cl	2	1	1.5	–	–
–	–	c1ccc(Cc2cn[nH]c2C2CCN(Cc3ccnc4ccccc34)CC2)cc1	1	0.8	3	–	–
–	–	CS(=O)(=O)c1cc(CN2CCC(c3[nH]ncc3Cc3ccccc3)CC2)ccn1	0.4	0.6	4	–	–
1	2	CS(=O)(=O)c1ccc(CN2CCC(c3[nH]ncc3Cc3ccccc3)CC2)cc1 [4-(4-benzyl-1H-pyrazol-3-yl)-1-(4-(methylsulfonyl)benzyl)piperidine]	–	–	–	> 100	–
–	–	Cc1n[nH]c(C2CCN(Cc3ccncc3Cl)CC2)c1Cc1ccccc1	–	–	–	–	inhibition at 1 µM ([1]; Human immunodeficiency virus 1, IIIB, MAGI, @ 1 uM, read-out: MAGI Assay % inhib CXCR4): 79%; inhibition at 1 µM ([2]; @ 1 uM, read-out: MAGI Assay % inhib CCR5): 92%; activity at 100 µM ([3]; @ 100 uM, read-out: % Activity of RT): 4%
–	–	c1ccc(Cc2cn[nH]c2C2CCN(Cc3cccc4ccccc34)CC2)cc1 [drawing 49]	7	8	20	–	–
–	–	Cc1ccc(-c2ccc3c(c2)C=C(C(=O)Nc2ccc(C[N+](C)(C)C4CCOCC4)cc2)CCC3)cc1.[Cl-] [TAK-779, reference compound]	–	–	–	–	inhibition of JRFL envelope / HeLa-C14 cell-cell fusion [6]: inhibited fusion
–	–	Clc1cnccc1CN1CCC(c2[nH]ncc2Cc2ccccc2)CC1 [drawing 40]	0.1	0.2	10	–	–
–	–	c1ccc(Cc2cn[nH]c2C2CCN(Cc3ccc4ccccc4c3)CC2)cc1 [drawing 50]	4	4	23	–	–
137	73.5	c1ccc(CCCC2CCN(Cc3ccccn3)CC2)cc1	–	–	–	> 100	–
–	–	[O-][n+]1ccc(CN2CCC(c3[nH]ncc3Cc3ccccc3)CC2)cc1	> 100	> 100	> 100	–	–
–	–	c1cc(CN2CCCNCCNCCCNCC2)ccc1CN1CCCNCCNCCCNCC1 [AMD3100]	–	–	–	–	inhibition of Nef-M1 induced MMD [7]: inhibited
24.8	16.7	c1ccc(Cc2cn[nH]c2C2CCN(Cc3ccccn3)CC2)cc1 [2-((4-(4-benzyl-1H-pyrazol-3-yl)piperidin-1-yl)methyl)pyridine]	–	–	–	> 100	–
–	–	CN(C)c1ccc(CN2CCC(c3[nH]ncc3Cc3ccccc3)CC2)cc1	–	5	–	–	MAGI Assay IC50 CXCR4 ([1]; Table 3): inactive; RT IC50 ([3]; Table 3): inactive
–	–	c1ccc(Cc2c[nH]nc2C2CCN(Cc3ccccn3)CC2)cc1 [Compound 2]	–	–	–	–	IC50 [1, 15]: ~20 µM; IC50 [2, 16]: ~20 µM; interaction with HIV-1 reverse transcriptase (STD NMR) [8]: interacts; interaction with m7CCR5 (STD NMR) [9]: interacts; interaction with CXCR4 (STD NMR) [10]: interacts
–	–	Fc1cc(CN2CCC(c3[nH]ncc3Cc3ccccc3)CC2)ccn1	> 10	10	10	–	–
–	–	c1ccc(Cc2cn[nH]c2C2CCN(Cc3ccncn3)CC2)cc1	> 100	20	146	–	–
5.33	5.61	Clc1ccc(CN2CCC(c3[nH]ncc3Cc3ccccc3)CC2)cc1 [4-(4-benzyl-1H-pyrazol-3-yl)-1-(4-chlorobenzyl)piperidine]	–	–	–	18.6	–
–	–	Clc1cc(CN2CCC(c3[nH]ncc3Cc3ccccc3)CC2)ccn1 [drawing 41]	0.2	0.3	10	–	–
–	–	Clc1nccc(CN2CCC(c3[nH]ncc3Cc3ccccc3)CC2)c1Cl	1.5	0.8	4	–	–
–	–	maraviroc	–	–	–	–	inhibition of Nef-M1 induced MMD [7]: inactive
–	–	Cc1cn([C@H]2C[C@H](N=[N+]=[N-])[C@@H](CO)O2)c(=O)[nH]c1=O [AZT]	–	–	–	–	inhibition of Nef-M1 induced MMD [7]: inactive
–	–	Clc1ccc(Cc2nc(CN3CCN(Cc4ccccn4)CC3)cs2)cc1 [Compound 1]	–	–	–	–	IC50 [1, 15]: ~20 µM; IC50 [2, 16]: ~20 µM
13	18.1	c1ccc(Cc2cn[nH]c2C2CCN(Cc3ccccc3)CC2)cc1 [1-benzyl-4-(4-benzyl-1H-pyrazol-3-yl)piperidine]	–	–	–	> 100	–
58.5	49.4	c1ccc(Cc2cn[nH]c2C2CCN(CC3CCCCC3)CC2)cc1 [4-(4-benzyl-1H-pyrazol-3-yl)-1-(cyclohexylmethyl)piperidine]	–	–	–	142	–

Compound	IC50 [1, 13] [µM]	IC50 [2, 14] [µM]	IC50 [1, 11] [µM]	IC50 [2, 12] [µM]	IC50 ([3]; Table 3) [µM]	CC50 [5] [µM]	also measured
Clc1cnccc1CN1CCC(c2[nH]ncc2Cc2ccccc2)CC1 [drawing 92, 4-((4-(4-benzyl-1H-pyrazol-3-yl)piperidin-1-yl)methyl)-3-chloropyridine]	0.21	0.14	–	–	–	67	–
c1ccc(Cc2cn[nH]c2C2CCN(Cc3ccc4ccccc4c3)CC2)cc1 [drawing 85, 4-(4-benzyl-1H-pyrazol-3-yl)-1-(naphthalen-2-ylmethyl)piperidine]	4.03	4.47	–	–	–	16.8	–
c1ccc(Cc2cn[nH]c2C2CCN(Cc3cccc4ccccc34)CC2)cc1 [drawing 86, 4-(4-benzyl-1H-pyrazol-3-yl)-1-(naphthalen-1-ylmethyl)piperidine]	6.79	7.63	–	–	–	17.9	–
Clc1cc(CN2CCC(c3[nH]ncc3Cc3ccccc3)CC2)ccn1 [drawing 93, 4-((4-(4-benzyl-1H-pyrazol-3-yl)piperidin-1-yl)methyl)-2-chloropyridine]	0.28	0.17	–	–	–	34	–
